Key:
Assay type in all cases: in vivo
[1] = system: upland rice (Oryza sp., var. Tebonnet, RICE); assay: Post-emerge test, crop safety; settings: post-emerge, 14 days after application, rating scale 0-100
Method in brief: (§1)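 Compounds in acetone were track-sprayed at 15-1000 g ai/ha (187 l/ha) on sandy loam pots: pre-emerge one day after seeding, post-emerge at 2-3 leaf stage with 0.25% v/v non-ionic surfactant. Phytotoxicity was rated 14 days later on a 0 (no damage) to 100 (complete death) scale.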

[2] = system: field corn (Zea mays L., var. Dekalb 535, CORN); assay: Post-emerge test, crop safety; settings: post-emerge, 14 days after application, rating scale 0-100
Method in brief: as §1

[3] = system: green foxtail (Setaria viridis, SETVI); assay: Post-emerge test, greenhouse herbicide activity screening; settings: post-emerge, 14 days after application, rating scale 0-100
Method in brief: (§2)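 Herbicidal damage is scored 0 (none) to 100 (complete plant death) two weeks after a simulated field spray. Rates span 15–1000 g ai/ha, delivered in acetone at 187 l/ha. For post-emergence treatments, plants have 2–3 leaves and the spray carries 0.25% v/v non-ionic surfactant.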

[4] = system: ivyleaf morningglory (Ipomoea hederacea, IPOHE); assay: as above; settings: post-emerge, 14 days after application, rating scale 0-100
Method in brief: as §2

[5] = system: barnyardgrass (Echinochloa crus-galli, ECHCG); assay: as above; settings: post-emerge, 14 days after application, rating scale 0-100
Method in brief: as §2

[6] = system: velvetleaf (Abutilon theophrasti, ABUTH); assay: as above; settings: post-emerge, 14 days after application, rating scale 0-100
Method in brief: as §2

[7] = system: redroot pigweed (Amaranthus retroflexus, AMARE); assay: as above; settings: post-emerge, 14 days after application, rating scale 0-100
Method in brief: as §2

[8] = system: johnsongrass (Sorghum halepense, SORHA); assay: as above; settings: post-emerge, 14 days after application, rating scale 0-100
Method in brief: as §2

[9] = system: large crabgrass (Digitaria sanguinalis, DIGSA); assay: as above; settings: post-emerge, 14 days after application, rating scale 0-100
Method in brief: as §2

[10] = system: sicklepod (Cassia obtusifolia, CASOB); assay: as above; settings: post-emerge, 14 days after application, rating scale 0-100
Method in brief: as §2

[11] = system: lambsquarters (Chenopodium album, CHEAL); assay: as above; settings: post-emerge, 14 days after application, rating scale 0-100
Method in brief: as §2

[12] = system: green foxtail (Setaria viridis, SETVI); assay: Pre-emerge test, greenhouse herbicide activity screening; settings: pre-emerge, 14 days after application, scale 0-100
Method in brief: as §1

[13] = system: ivyleaf morningglory (Ipomoea hederacea, IPOHE); assay: as above; settings: pre-emerge, 14 days after application, scale 0-100
Method in brief: as §1

[14] = system: barnyardgrass (Echinochloa crus-galli, ECHCG); assay: as above; settings: pre-emerge, 14 days after application, scale 0-100
Method in brief: as §1

[15] = system: velvetleaf (Abutilon theophrasti, ABUTH); assay: as above; settings: pre-emerge, 14 days after application, scale 0-100
Method in brief: as §1

[16] = system: johnsongrass (Sorghum halepense, SORHA); assay: as above; settings: pre-emerge, 14 days after application, scale 0-100
Method in brief: as §1

[17] = system: large crabgrass (Digitaria sanguinalis, DIGSA); assay: as above; settings: pre-emerge, 14 days after application, scale 0-100
Method in brief: as §1

[18] = system: sicklepod (Cassia obtusifolia, CASOB); assay: as above; settings: pre-emerge, 14 days after application, scale 0-100
Method in brief: as §1

[19] = system: lambsquarters (Chenopodium album, CHEAL); assay: as above; settings: pre-emerge, 14 days after application, scale 0-100
Method in brief: as §1

[20] = system: upland rice (Oryza sp., var. Tebonnet, RICE); assay: Pre-emerge test, crop safety; settings: pre-emerge, 14 days after application, scale 0-100
Method in brief: (§3)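 Fourteen days after spraying, crop and weed injury was graded visually from 0, no effect, to 100, every plant dead. Test substances were dissolved in acetone and applied at 15–1000 g ai/ha with a flat-fan nozzle. Application was either pre-emergence, one day after sowing, or post-emergence at the 2–3 leaf stage.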

[21] = system: field corn (Zea mays L., var. Dekalb 535, CORN); assay: Pre-emerge test, crop safety; settings: pre-emerge, 14 days after application, scale 0-100
Method in brief: as §3

[22] = system: redroot pigweed (Amaranthus retroflexus, AMARE); assay: Pre-emerge test, greenhouse herbicide activity screening; settings: pre-emerge, 14 days after application, scale 0-100
Method in brief: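 Rating: 0–100 visual injury, 14 DAA. Application: acetone, 187 l/ha, 15–1000 g ai/ha, flat-fan track sprayer with nozzle 40–45 cm above soil or canopy. Post-emerge runs used 0.25% v/v surfactant on 2–3 leaf plants.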

## CCOC(=O)C(C)SCC(=O)Nc1c(OC)c(Cl)cc(F)c1-n1c(=O)cc(C(F)(F)F)n(C)c1=O (stereo not shown) [2-171]
[1]; 63 g ai/ha
  RICE phytotoxicity rating (crop damage): 0
[1]; 250 g ai/ha
  RICE phytotoxicity rating (crop damage): 10
[2]; 63 g ai/ha
  CORN phytotoxicity rating (crop damage): 0
[2]; 250 g ai/ha
  CORN phytotoxicity rating (crop damage): 10
[3]; 63 g ai/ha
  SETVI phytotoxicity rating: 0
[3]; 250 g ai/ha
  SETVI phytotoxicity rating: 10
[4]; 63 g ai/ha
  IPOHE phytotoxicity rating: 60
[4]; 250 g ai/ha
  IPOHE phytotoxicity rating: 100
[5]; 63 g ai/ha
  ECHCG phytotoxicity rating: 0
[5]; 250 g ai/ha
  ECHCG phytotoxicity rating: 0
[6]; 63 g ai/ha
  ABUTH phytotoxicity rating: 60
[6]; 250 g ai/ha
  ABUTH phytotoxicity rating: 100
[7]; 63 g ai/ha
  AMARE phytotoxicity rating: 30
[7]; 250 g ai/ha
  AMARE phytotoxicity rating: 50
[8]; 63 g ai/ha
  SORHA phytotoxicity rating: 0
[8]; 250 g ai/ha
  SORHA phytotoxicity rating: 10
[9]; 63 g ai/ha
  DIGSA phytotoxicity rating: 0
[9]; 250 g ai/ha
  DIGSA phytotoxicity rating: 10
[10]; 63 g ai/ha
  CASOB phytotoxicity rating: 30
[10]; 250 g ai/ha
  CASOB phytotoxicity rating: 40
[11]; 63 g ai/ha
  CHEAL phytotoxicity rating: 40
[11]; 250 g ai/ha
  CHEAL phytotoxicity rating: 90
[12]; 63 g ai/ha
  phytotoxicity rating SETVI: 30
[12]; 250 g ai/ha
  phytotoxicity rating SETVI: 90
[13]; 63 g ai/ha
  phytotoxicity rating IPOHE: 10
[13]; 250 g ai/ha
  phytotoxicity rating IPOHE: 60
[14]; 63 g ai/ha
  phytotoxicity rating ECHCG: 0
[14]; 250 g ai/ha
  phytotoxicity rating ECHCG: 10
[15]; 63 g ai/ha
  phytotoxicity rating ABUTH: 90
[15]; 250 g ai/ha
  phytotoxicity rating ABUTH: 100
[16]; 63 g ai/ha
  phytotoxicity rating SORHA: 10
[16]; 250 g ai/ha
  phytotoxicity rating SORHA: 30
[17]; 63 g ai/ha
  phytotoxicity rating DIGSA: 20
[17]; 250 g ai/ha
  phytotoxicity rating DIGSA: 80
[18]; 63 g ai/ha
  phytotoxicity rating CASOB: 10
[18]; 250 g ai/ha
  phytotoxicity rating CASOB: 30
[19]; 63 g ai/ha
  phytotoxicity rating CHEAL: 70
[19]; 250 g ai/ha
  phytotoxicity rating CHEAL: 100
[20]; 63 g ai/ha
  phytotoxicity rating RICE (crop damage): 0
[20]; 250 g ai/ha
  phytotoxicity rating RICE (crop damage): 10
[21]; 63 g ai/ha
  phytotoxicity rating CORN (crop damage): 0
[21]; 250 g ai/ha
  phytotoxicity rating CORN (crop damage): 0
[22]; 63 g ai/ha
  phytotoxicity rating AMARE: 50
[22]; 250 g ai/ha
  phytotoxicity rating AMARE: 100

## COc1c(Br)cc(F)c(-n2c(=O)cc(C(F)(F)F)n(C)c2=O)c1NC(=O)C=Cc1ccccc1 [2-175]
[1]; 63 g ai/ha
  RICE phytotoxicity rating (crop damage): 50
[1]; 250 g ai/ha
  RICE phytotoxicity rating (crop damage): 80
[2]; 63 g ai/ha
  CORN phytotoxicity rating (crop damage): 10
[2]; 250 g ai/ha
  CORN phytotoxicity rating (crop damage): 10
[3]; 63 g ai/ha
  SETVI phytotoxicity rating: 0
[3]; 250 g ai/ha
  SETVI phytotoxicity rating: 20
[4]; 63 g ai/ha
  IPOHE phytotoxicity rating: 100
[4]; 250 g ai/ha
  IPOHE phytotoxicity rating: 100
[5]; 63 g ai/ha
  ECHCG phytotoxicity rating: 0
[5]; 250 g ai/ha
  ECHCG phytotoxicity rating: 20
[6]; 63 g ai/ha
  ABUTH phytotoxicity rating: 100
[6]; 250 g ai/ha
  ABUTH phytotoxicity rating: 100
[7]; 63 g ai/ha
  AMARE phytotoxicity rating: 100
[7]; 250 g ai/ha
  AMARE phytotoxicity rating: 100
[8]; 63 g ai/ha
  SORHA phytotoxicity rating: 0
[8]; 250 g ai/ha
  SORHA phytotoxicity rating: 10
[9]; 63 g ai/ha
  DIGSA phytotoxicity rating: 0
[9]; 250 g ai/ha
  DIGSA phytotoxicity rating: 10
[10]; 63 g ai/ha
  CASOB phytotoxicity rating: 100
[10]; 250 g ai/ha
  CASOB phytotoxicity rating: 100
[11]; 63 g ai/ha
  CHEAL phytotoxicity rating: 100
[11]; 250 g ai/ha
  CHEAL phytotoxicity rating: 100
[12]; 63 g ai/ha
  phytotoxicity rating SETVI: 0
[12]; 250 g ai/ha
  phytotoxicity rating SETVI: 60
[13]; 63 g ai/ha
  phytotoxicity rating IPOHE: 70
[13]; 250 g ai/ha
  phytotoxicity rating IPOHE: 50
[14]; 63 g ai/ha
  phytotoxicity rating ECHCG: 0
[14]; 250 g ai/ha
  phytotoxicity rating ECHCG: 40
[15]; 63 g ai/ha
  phytotoxicity rating ABUTH: 100
[15]; 250 g ai/ha
  phytotoxicity rating ABUTH: 100
[16]; 63 g ai/ha
  phytotoxicity rating SORHA: 0
[16]; 250 g ai/ha
  phytotoxicity rating SORHA: 30
[17]; 63 g ai/ha
  phytotoxicity rating DIGSA: 0
[17]; 250 g ai/ha
  phytotoxicity rating DIGSA: 60
[18]; 63 g ai/ha
  phytotoxicity rating CASOB: 30
[18]; 250 g ai/ha
  phytotoxicity rating CASOB: 30
[19]; 63 g ai/ha
  phytotoxicity rating CHEAL: 100
[19]; 250 g ai/ha
  phytotoxicity rating CHEAL: 100
[20]; 63 g ai/ha
  phytotoxicity rating RICE (crop damage): 20
[20]; 250 g ai/ha
  phytotoxicity rating RICE (crop damage): 40
[21]; 63 g ai/ha
  phytotoxicity rating CORN (crop damage): 0
[21]; 250 g ai/ha
  phytotoxicity rating CORN (crop damage): 0
[22]; 63 g ai/ha
  phytotoxicity rating AMARE: 100
[22]; 250 g ai/ha
  phytotoxicity rating AMARE: 100

— US6355799B1, “Substituted benzene compounds, process for their preparation, and herbicidal and defoliant compositions containing them” (ISK Americas Incorporated, priority 1997, dated 2002)
